Reference: article PMC11864979, “First-in-class ultralong-target-residence-time p38α inhibitors as a mitosis-targeted therapy for colorectal cancer” (Nature Cancer, 2025)
Read-outs that look alike come from different tables or passages of the source.

Columns and labels:
Assay in all cases: selectivity profiling in a panel of 340 wild-type kinases (Reaction Biology Europe)
Format in all cases: binding
[1] = biological target: T1, 340 wild-type kinases (Homo sapiens, UniProt Q13237)
T1 construct: purchased Reaction Biology Europe
T1 sequence (Q13237 1-762): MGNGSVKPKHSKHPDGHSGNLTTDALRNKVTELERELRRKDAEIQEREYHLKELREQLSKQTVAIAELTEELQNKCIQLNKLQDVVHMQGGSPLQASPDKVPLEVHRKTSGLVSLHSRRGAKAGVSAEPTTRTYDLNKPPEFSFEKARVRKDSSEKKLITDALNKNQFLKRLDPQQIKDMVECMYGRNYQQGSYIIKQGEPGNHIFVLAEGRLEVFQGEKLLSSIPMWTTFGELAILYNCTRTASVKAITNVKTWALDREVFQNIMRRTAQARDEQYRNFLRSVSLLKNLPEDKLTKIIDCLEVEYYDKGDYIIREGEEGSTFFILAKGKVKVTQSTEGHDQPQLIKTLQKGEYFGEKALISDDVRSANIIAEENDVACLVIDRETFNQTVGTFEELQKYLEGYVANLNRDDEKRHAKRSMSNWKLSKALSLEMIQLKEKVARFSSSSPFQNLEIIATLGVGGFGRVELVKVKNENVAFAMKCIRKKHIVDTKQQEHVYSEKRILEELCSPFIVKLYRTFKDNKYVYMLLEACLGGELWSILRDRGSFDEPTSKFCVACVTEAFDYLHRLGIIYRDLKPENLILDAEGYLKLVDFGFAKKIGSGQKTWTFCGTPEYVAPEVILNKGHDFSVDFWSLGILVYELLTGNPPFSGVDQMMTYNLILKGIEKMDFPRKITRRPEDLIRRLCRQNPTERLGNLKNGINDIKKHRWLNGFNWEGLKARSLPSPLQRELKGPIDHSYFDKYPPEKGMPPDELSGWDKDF

[2] = biological target: T2, 340 wild-type kinases (Homo sapiens, UniProt P27037)
T2 construct: purchased Reaction Biology Europe
T2 sequence (P27037 20-513): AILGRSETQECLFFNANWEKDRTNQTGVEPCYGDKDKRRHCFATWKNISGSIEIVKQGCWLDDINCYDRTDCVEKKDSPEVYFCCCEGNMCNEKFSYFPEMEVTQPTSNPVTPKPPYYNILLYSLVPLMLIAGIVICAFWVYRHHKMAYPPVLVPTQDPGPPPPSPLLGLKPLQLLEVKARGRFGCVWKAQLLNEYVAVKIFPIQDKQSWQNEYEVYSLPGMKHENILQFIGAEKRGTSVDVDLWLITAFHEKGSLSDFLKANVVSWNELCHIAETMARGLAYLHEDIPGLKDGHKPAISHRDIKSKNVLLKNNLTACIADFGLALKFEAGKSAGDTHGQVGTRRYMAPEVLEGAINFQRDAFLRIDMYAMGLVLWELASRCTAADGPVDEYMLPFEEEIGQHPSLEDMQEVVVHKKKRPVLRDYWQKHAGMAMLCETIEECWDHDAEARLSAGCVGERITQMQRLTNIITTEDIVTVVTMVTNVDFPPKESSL

[3] = biological target: T3, 340 wild-type kinases (Homo sapiens, UniProt Q15375)
T3 construct: purchased Reaction Biology Europe

[4] = biological target: T4, 340 wild-type kinases (Homo sapiens, UniProt Q13555)
T4 construct: purchased Reaction Biology Europe
T4 sequence (Q13555 whole entry): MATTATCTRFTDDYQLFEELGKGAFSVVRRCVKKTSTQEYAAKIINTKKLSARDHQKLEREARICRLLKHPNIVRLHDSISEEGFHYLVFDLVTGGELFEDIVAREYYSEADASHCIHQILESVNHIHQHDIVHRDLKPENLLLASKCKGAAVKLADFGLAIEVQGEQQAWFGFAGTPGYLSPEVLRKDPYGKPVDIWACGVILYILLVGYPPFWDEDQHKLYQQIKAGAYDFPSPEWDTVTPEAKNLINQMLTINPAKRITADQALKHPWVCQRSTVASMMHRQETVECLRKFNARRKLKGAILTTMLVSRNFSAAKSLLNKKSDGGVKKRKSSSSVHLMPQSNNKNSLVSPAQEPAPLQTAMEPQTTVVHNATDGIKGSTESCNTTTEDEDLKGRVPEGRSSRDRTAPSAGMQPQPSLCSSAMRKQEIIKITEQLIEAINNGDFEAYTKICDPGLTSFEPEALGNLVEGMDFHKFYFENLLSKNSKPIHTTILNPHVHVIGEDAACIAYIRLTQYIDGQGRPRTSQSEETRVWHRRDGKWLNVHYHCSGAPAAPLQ

[5] = biological target: T5, 340 wild-type kinases (Homo sapiens, UniProt Q9P1W9)
T5 construct: purchased Reaction Biology Europe
T5 sequence (Q9P1W9 whole entry): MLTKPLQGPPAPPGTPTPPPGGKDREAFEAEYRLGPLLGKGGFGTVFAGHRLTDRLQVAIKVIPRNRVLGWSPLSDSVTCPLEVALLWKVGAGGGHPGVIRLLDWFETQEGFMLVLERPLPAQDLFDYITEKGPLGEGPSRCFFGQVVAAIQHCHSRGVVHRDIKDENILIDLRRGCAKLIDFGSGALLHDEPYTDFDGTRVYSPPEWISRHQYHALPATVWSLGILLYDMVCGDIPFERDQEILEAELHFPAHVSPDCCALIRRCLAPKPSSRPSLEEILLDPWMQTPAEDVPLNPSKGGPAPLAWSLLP

[6] = biological target: T6, 340 wild-type kinases (Homo sapiens, UniProt Q16644)
T6 construct: purchased Reaction Biology Europe
T6 sequence (Q16644 whole entry): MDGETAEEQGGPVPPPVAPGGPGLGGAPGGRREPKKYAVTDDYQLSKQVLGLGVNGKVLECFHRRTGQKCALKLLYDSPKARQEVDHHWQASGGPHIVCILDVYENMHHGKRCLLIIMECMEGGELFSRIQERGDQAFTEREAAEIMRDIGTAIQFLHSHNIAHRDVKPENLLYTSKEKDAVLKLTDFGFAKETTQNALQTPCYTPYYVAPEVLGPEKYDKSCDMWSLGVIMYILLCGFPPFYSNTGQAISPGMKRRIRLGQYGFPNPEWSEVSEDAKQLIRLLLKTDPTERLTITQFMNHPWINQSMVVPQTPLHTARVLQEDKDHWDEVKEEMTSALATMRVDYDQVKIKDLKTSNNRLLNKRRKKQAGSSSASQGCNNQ

[7] = biological target: T7, 340 wild-type kinases (Homo sapiens, UniProt P00519)
T7 construct: purchased Reaction Biology Europe
T7 sequence (P00519 whole entry): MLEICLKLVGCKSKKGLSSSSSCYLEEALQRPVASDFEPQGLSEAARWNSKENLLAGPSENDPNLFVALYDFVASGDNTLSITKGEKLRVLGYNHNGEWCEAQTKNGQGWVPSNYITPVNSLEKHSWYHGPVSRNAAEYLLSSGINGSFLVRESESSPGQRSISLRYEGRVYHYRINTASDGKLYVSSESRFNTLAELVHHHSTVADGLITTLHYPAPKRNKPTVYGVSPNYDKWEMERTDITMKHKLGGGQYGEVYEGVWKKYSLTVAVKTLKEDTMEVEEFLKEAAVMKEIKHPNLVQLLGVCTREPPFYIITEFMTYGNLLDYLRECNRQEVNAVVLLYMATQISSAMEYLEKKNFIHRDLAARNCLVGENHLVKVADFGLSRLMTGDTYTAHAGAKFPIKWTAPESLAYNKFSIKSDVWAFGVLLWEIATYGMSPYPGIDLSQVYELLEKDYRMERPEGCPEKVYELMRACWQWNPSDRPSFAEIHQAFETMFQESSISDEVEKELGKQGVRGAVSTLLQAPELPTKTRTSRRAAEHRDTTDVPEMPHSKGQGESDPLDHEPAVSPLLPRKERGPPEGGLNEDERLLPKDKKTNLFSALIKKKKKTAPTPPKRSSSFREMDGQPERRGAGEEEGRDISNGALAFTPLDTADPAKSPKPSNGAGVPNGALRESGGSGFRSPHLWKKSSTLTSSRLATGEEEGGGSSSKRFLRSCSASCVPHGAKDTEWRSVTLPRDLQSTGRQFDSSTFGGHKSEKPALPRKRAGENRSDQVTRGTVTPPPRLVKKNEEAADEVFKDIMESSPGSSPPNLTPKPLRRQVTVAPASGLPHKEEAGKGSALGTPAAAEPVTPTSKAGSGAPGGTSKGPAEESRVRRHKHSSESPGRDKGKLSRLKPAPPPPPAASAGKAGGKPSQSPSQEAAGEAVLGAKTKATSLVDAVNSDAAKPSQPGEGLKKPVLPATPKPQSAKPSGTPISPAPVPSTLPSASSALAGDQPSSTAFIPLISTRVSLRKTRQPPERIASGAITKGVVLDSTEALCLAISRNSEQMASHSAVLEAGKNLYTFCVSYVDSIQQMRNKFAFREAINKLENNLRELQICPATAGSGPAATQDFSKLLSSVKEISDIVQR

[8] = biological target: T8, 340 wild-type kinases (Homo sapiens, UniProt Q04759)
T8 construct: purchased Reaction Biology Europe
T8 sequence (Q04759 whole entry): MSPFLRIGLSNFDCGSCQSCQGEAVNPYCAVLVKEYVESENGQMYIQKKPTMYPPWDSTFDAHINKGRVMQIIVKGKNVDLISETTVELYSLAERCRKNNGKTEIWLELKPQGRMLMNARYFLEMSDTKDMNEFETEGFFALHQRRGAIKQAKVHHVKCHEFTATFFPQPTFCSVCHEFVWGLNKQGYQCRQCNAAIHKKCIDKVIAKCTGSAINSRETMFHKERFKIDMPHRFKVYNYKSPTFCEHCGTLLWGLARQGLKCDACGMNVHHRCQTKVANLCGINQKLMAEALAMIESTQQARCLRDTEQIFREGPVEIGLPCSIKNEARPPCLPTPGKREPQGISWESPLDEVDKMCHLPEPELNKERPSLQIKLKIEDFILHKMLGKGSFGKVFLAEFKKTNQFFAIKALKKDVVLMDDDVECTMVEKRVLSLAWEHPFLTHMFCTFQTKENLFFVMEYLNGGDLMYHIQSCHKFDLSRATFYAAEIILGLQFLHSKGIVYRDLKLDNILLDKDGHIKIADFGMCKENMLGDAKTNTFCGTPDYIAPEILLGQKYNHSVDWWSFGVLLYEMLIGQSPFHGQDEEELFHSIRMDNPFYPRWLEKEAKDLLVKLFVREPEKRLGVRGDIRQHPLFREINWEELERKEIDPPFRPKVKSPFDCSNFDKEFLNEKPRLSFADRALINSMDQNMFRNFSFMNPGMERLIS

[9] = biological target: T9, 340 wild-type kinases (Homo sapiens, UniProt O96013)
T9 construct: purchased Reaction Biology Europe
T9 sequence (O96013 whole entry): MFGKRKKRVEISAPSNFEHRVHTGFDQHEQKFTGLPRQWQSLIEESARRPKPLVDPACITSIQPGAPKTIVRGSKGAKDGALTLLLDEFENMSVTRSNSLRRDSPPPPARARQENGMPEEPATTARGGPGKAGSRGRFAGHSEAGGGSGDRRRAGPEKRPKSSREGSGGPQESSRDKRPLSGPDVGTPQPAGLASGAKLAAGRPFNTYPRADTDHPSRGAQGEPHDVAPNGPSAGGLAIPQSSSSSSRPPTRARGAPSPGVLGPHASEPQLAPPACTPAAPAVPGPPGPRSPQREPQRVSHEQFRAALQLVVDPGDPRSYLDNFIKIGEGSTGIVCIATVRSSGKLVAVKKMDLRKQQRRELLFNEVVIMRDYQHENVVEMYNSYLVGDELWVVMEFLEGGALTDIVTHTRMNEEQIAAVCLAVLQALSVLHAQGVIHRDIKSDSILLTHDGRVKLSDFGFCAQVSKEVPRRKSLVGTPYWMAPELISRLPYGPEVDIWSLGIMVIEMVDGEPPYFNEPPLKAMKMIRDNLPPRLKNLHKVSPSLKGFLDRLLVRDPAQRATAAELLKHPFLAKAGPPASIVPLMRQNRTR

[10] = biological target: T10, 340 wild-type kinases (Homo sapiens, UniProt Q99986)
T10 construct: purchased Reaction Biology Europe
T10 sequence (Q99986 1-396): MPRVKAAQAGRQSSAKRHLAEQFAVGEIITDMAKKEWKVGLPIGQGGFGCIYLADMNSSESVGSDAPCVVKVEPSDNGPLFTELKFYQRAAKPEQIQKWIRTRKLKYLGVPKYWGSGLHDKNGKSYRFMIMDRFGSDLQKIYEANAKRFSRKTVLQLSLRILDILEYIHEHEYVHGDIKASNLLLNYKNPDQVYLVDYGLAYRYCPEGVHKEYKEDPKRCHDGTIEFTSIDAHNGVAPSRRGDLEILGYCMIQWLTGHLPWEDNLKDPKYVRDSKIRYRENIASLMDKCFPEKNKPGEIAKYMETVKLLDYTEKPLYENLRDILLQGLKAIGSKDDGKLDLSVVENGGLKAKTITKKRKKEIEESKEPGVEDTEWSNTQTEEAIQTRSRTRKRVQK

SMILES: CNC(=O)c1ccc2c(c1)C(=O)c1ccc(Nc3ccc(F)c(NC(=O)C4CC4)c3)cc1CC2 [Compound 2015]
- remaining activity at 0.2 µM ([1]; 0.2 µM 2015, read-out: PRKG2 residual activity): 112%
- remaining activity at 1 µM ([1]; 1 µM 2015, read-out: PRKG2 residual activity): 96.9%
- remaining activity at 0.2 µM ([1]; PRKG2, 0.2 µM, read-out: residual activity): 112%
- remaining activity at 1 µM ([1]; PRKG2, 1 µM, read-out: residual activity): 96.9%
- remaining activity at 0.2 µM ([2]; 0.2 µM 2015, read-out: ACVR2A residual activity): 119%
- remaining activity at 1 µM ([2]; 1 µM 2015, read-out: ACVR2A residual activity): 104%
- remaining activity at 0.2 µM ([2]; ACVR2A, 0.2 µM, read-out: residual activity): 119%
- remaining activity at 1 µM ([2]; ACVR2A, 1 µM, read-out: residual activity): 104%
- remaining activity at 0.2 µM ([3]; 0.2 µM 2015, read-out: EPHA7 residual activity): 126%
- remaining activity at 1 µM ([3]; 1 µM 2015, read-out: EPHA7 residual activity): 106%
- remaining activity at 0.2 µM ([3]; EPHA7, 0.2 µM, read-out: residual activity): 126%
- remaining activity at 1 µM ([3]; EPHA7, 1 µM, read-out: residual activity): 106%
- remaining activity at 0.2 µM ([4]; 0.2 µM 2015, read-out: CAMK2G residual activity): 99%
- remaining activity at 1 µM ([4]; 1 µM 2015, read-out: CAMK2G residual activity): 90.5%
- remaining activity at 0.2 µM ([4]; CAMK2G, 0.2 µM, read-out: residual activity): 99%
- remaining activity at 1 µM ([4]; CAMK2G, 1 µM, read-out: residual activity): 90.5%
- remaining activity at 0.2 µM ([5]; 0.2 µM 2015, read-out: PIM2 residual activity): 119%
- remaining activity at 1 µM ([5]; 1 µM 2015, read-out: PIM2 residual activity): 98.6%
- remaining activity at 0.2 µM ([5]; PIM2, 0.2 µM, read-out: residual activity): 119%
- remaining activity at 1 µM ([5]; PIM2, 1 µM, read-out: residual activity): 98.6%
- remaining activity at 0.2 µM ([6]; 0.2 µM 2015, read-out: MAPKAPK3 residual activity): 97.3%
- remaining activity at 1 µM ([6]; 1 µM 2015, read-out: MAPKAPK3 residual activity): 86.1%
- remaining activity at 0.2 µM ([6]; MAPKAPK3, 0.2 µM, read-out: residual activity): 97.3%
- remaining activity at 1 µM ([6]; MAPKAPK3, 1 µM, read-out: residual activity): 86.1%
- remaining activity at 0.2 µM ([7]; 0.2 µM 2015, read-out: ABL1 residual activity): 108%
- remaining activity at 1 µM ([7]; 1 µM 2015, read-out: ABL1 residual activity): 99.6%
- remaining activity at 0.2 µM ([7]; ABL1, 0.2 µM, read-out: residual activity): 108%
- remaining activity at 1 µM ([7]; ABL1, 1 µM, read-out: residual activity): 99.6%
- remaining activity at 0.2 µM ([8]; 0.2 µM 2015, read-out: PKCtheta residual activity): 108%
- remaining activity at 1 µM ([8]; 1 µM 2015, read-out: PKCtheta residual activity): 89.1%
- remaining activity at 0.2 µM ([8]; PKCtheta, 0.2 µM, read-out: residual activity): 108%
- remaining activity at 1 µM ([8]; PKCtheta, 1 µM, read-out: residual activity): 89%
- remaining activity at 0.2 µM ([9]; 0.2 µM 2015, read-out: PAK4 residual activity): 92.5%
- remaining activity at 1 µM ([9]; 1 µM 2015, read-out: PAK4 residual activity): 85.8%
- remaining activity at 0.2 µM ([9]; PAK4, 0.2 µM, read-out: residual activity): 92.5%
- remaining activity at 1 µM ([9]; PAK4, 1 µM, read-out: residual activity): 85.8%
- remaining activity at 0.2 µM ([10]; 0.2 µM 2015, read-out: VRK1 residual activity): 96.8%
- remaining activity at 1 µM ([10]; 1 µM 2015, read-out: VRK1 residual activity): 87.2%
- remaining activity at 0.2 µM ([10]; VRK1, 0.2 µM, read-out: residual activity): 96.8%
- remaining activity at 1 µM ([10]; VRK1, 1 µM, read-out: residual activity): 87.2%
